Reference: patent US7820400B2, “Tumor-associated marker” (The Trustees of Columbia University in the City of New York, priority 2000, dated 2010)

System: SK-BR-3 cells
Assay: Release of TIP-2 antigen into culture media of Taxol-treated cells (Western blot)
Assay type: cell-based, human
Conditions: SK-BR-3 cells treated with increasing amounts of Taxol (5.5-88 uM)
Method: The release of TIP-2 antigen into cell culture media of SK-BR-3 cells treated with different concentration of Taxol. The lines are as follows (from left to right): 1) SK-BR-3 cell lysate prepared form approximately 70,000 cells; 2) empty lane; 3) Taxol, 88 uM added to 35 mm tissue plate containing approximately 250,000 cells; 4) same with Taxol, 44 uM; 5) same with Taxol, 22 uM; 7) same with Taxol, 11 uM; 8) same with Taxol, 5.5 uM; 9) cell lysate prepared from cells which were not treated with Taxol; 10) lysate prepared from the residual dead cells' remnants after treatment with Taxol, 88 uM.
Using a specific fusion partner cell line MFP-2 were developed two fully human antibodies to breast and prostate cancer-associated antigens. Both antigens were reactive with a 42 kDa-protein target, which was identified through SEREX technology as Ga-interacting protein, C terminus or Tax interacting protein, clone 2. This protein is specifically overexpressed in three human breast cancer cell lines, SK-BR-3, MCF-7 and ZR-1-75, has very low if any expression level in human prostate cancer lines, PC-3, LNCaP and DU-145 and no expression in two human fibroblast cell lines. […] Normal breast epithelia were negative for staining with anti-TIP-2 antibodies as was benign prostate hyperplasia (BPH) tissue. […]

In the case of `CC(=O)O[C@H]1C(=O)[C@@]2(C)[C@H]([C@H](OC(=O)c3ccccc3)[C@]3(O)C[C@H](OC(=O)[C@H](O)[C@@H](NC(=O)c4ccccc4)c4ccccc4)C(C)=C1C3(C)C)[C@]1(OC(C)=O)CO[C@@H]1C[C@@H]2O` [Taxol], the “release of TIP-2 antigen into the media” value was “TIP-2 antigen released into the media in a dose dependent manner”.
